Laboratory results taken from patent publication US9115092B2, “Substituted quinazoline and pyrido-pyrimidine derivatives” (Asana Biosciences, LLC, priority 2010, dated 2015).

Assays:
[1] = molecular target: T1, PI3Kα (wild-type), P110/P85α (Homo sapiens, UniProt P42336); experiment: PI3 Kinase TR-FRET assay, PI3Kα (wild-type); format: biochemical
T1 construct: made in house; host or cells: SF9 insect cells
How it was run: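 TR-FRET read-out of PIP3 formation via biotin-PIP3 displacement (665/615 nm ratio) gave IC50 curves. Enzyme: 5 ng wild-type P110/P85α from Sf9 cells, 60 min RT with compound and PIP2 (MgCl2 40 mM, DTT 5 mM), then 30 min RT kinase reaction at 10 μM ATP and 10 μM PIP2.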

PI3 kinase isoform δ = PI3 kinase isoform δ (Homo sapiens, UniProt O00329); experiment: PI3 Kinase TR-FRET assay, isoform δ; format: biochemical; settings: read-out: inhibition of PI3 kinase isoform δ, IC50
Method: The ability of compounds of the invention to inhibit PI3K activity was determined in a homogeneous TR-FRET assay using a PI3K assay kit (Millipore, USA; cat #33-016) according to manufacturer's instructions. PI3-Kinases (isoforms α, β, γ and δ) catalyze the phosphorylation of phosphatidylinositol, PIP2 to PIP3 in the presence of ATP and Mg^2+. The PIP3 product is detected by displacement of biotin-PIP3 from an energy transfer complex consisting of Europium labeled anti-GST monoclonal antibody, a GST-tagged PH domain, biotinylated PIP3 and Streptavidin-APC. Excitation of Europium in the complex results in an energy transfer to the APC and a fluorescence emission at 665 nm. The PIP3 product displaces biotin-PIP3 from the complex resulting in a loss of energy transfer and thus a decrease in signal.
To test for the ability of compounds to inhibit the activity of PI3Kα (wild-type), exemplary compounds of formula (I) were dissolved in DMSO and directly distributed into 384-well plates at a volume of 0.5 μL. 14.5 μL of P110/P85α/PIP2 mixture in buffer (obtained from the Millipore kit) containing MgCl2 (40 mM) and DTT (5 mM) was added to compound wells and incubated for 60 min at room temperature. P110/P85α was expressed in SF9 insect cells and purified nickel column extraction. Five ng of wild-type P110/P85α was used in the assay. The kinase reaction was started by the addition of ATP. The assay concentrations of both PIP2 and ATP were 10 μM. The reaction mixture was incubated for 30 min at room temperature and was terminated by the addition of stop mix and detection mix. Fluorescence was measured at 615 and 665 nm upon excitation at 340 nm in a Victor™ V5 fluorometer (Perkin Elmer, USA). The fluorescence emission ratio at 665 to 615 nm, proportional to the kinase activity, was plotted against the compound concentration to generate dose-response curves and IC50 values were determined using GraphPad Prism® 5 software.
The activity of PI3 kinase isoforms β, γ and δ were assayed in a similar manner to the assay protocol described above for PI3Kα, by substituting the appropriate p110/p85 isoform for the p110α/p85α. Compounds of formula (I) caused inhibition of PI3 kinase isoforms β, γ and δ as determined by these assays. For example, the compounds of examples 3, 51, 54, 111, 113, 115, and 253 each caused inhibition of PI3 kinase isoform β with IC50 values <50 nM. The compounds of examples 104, 133, 146 and 152 each caused inhibition of PI3 kinase isoform β with IC50 values <500 nM. The compounds of examples 3, 51, 54, 104, 111, 113, 115, 133, 253, and 152 each caused inhibition of PI3 kinase isoform γ with IC50 values <500 nM. […] The compounds of examples 2, 3, 51, 54, 111, 113, and 253 each caused inhibition of PI3 kinase isoform […] with IC50 values >1 μM.

mTOR kinase = molecular target: T2, mTOR kinase (Homo sapiens, UniProt P42345); experiment: mTOR kinase TR-FRET assay; format: biochemical; settings: read-out: mTO R
T2 construct: purchased Millipore, USA
How it was run: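 TR-FRET read-out (340 nm excitation, 615/665 nm emission) of Thr389 phosphorylation of a ULight-labeled p70 S6K peptide (50 nM) by mTOR, 20 μM ATP, 60 min room temperature after 60 min compound preincubation. Buffer HEPES pH 7.5 with MnCl2, EGTA; IC50 by sigmoidal dose-response.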

PC3 cells = experiment: XTT assay for cell viability, PC3 cells; format: cell-based, human; settings: Homo sapiens, PC-3, cell viability
How it was run: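 PC3 cells seeded at 1000 cells/well, grown 24 h, then exposed to serial dilutions of compound for 96 h. Viability read by XTT dye at 37° C, absorbance 465 nm. EC50 from sigmoidal dose-response fit.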

[2] = test system: pAKT(5473) (phosphorylated at serine 473), PC3 cells; experiment: In-cell Western assay, pAKT(5473) in PC3 cells; format: cell-based; settings: Homo sapiens, PC-3, In-cell Western, read-out: pAkt-S473
Method: (§1) Cells from human prostate cancer cell line PC3 (American Type Culture Collection (ATCC), Manassas, Va. 20108 USA) were seeded at an optimal density of 22,000 cell/well in 96-well plates containing Ham's F12K medium (90 μL) and incubated overnight. The compound dilutions were carried out in 100% DMSO followed by a dilution in the medium. Test compounds were added in serial dilutions to the wells and incubated for 2 h. The cells were washed and fixed with 4% paraformaldehyde. After incubation at room temperature for 1 h in the dark, blocking was done for 2 h at room temperature. Primary antibodies for phosphorylated (p) AKT(5473) (phosphorylated at serine 473), pAKT(T308) (phosphorylated at threonine 308) and for pS6RP(S235/236) (phosphorylated at serine 235/236) (commercially available from Cell Signaling Technology®, whose protocol was followed for the in-cell western assay, were diluted to the required concentration and added to the corresponding wells followed by overnight incubation at 4° C. Eu-labeled rabbit (PE) (Perkin-Elmer USA catalog #AD0106) secondary antibody was added and incubated for 2 h at room temperature. Delfia® enhancement solution (cat #1244-105, Perkin Elmer USA) was subsequently added to the plate before taking the reading at 615 nm with excitation wavelength of 340 nm, after which 0.5 μg/mL of Hoechst® 33258 dye (Catalog #86140-5, Sigma) was added to the plate and fluorescence emission was read at 460 nm with 355 nm excitation, to evaluate the correction factor. IC50 values were calculated using a sigmoidal dose-response curve fit in GraphPad Prism® v5 software.

[3] = test system: pAKT(T308) (phosphorylated at threonine 308), PC3 cells; experiment: In-cell Western assay, pAKT(T308) in PC3 cells; format: cell-based; settings: Homo sapiens, PC-3, In-cell Western
Method: as §1

[4] = test system: pS6RP(S235/236), PC3 cells; experiment: In-cell Western assay, pS6RP(S235/236) in PC3 cells; format: cell-based, human; settings: Homo sapiens, PC-3, In-cell Western
How it was run: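 Overnight-seeded PC3 cells were treated 2 h with serially diluted compound, then fixed and immunostained with phospho-specific primary antibodies and Eu-labelled secondary. Time-resolved Eu signal read at 615 nm (ex 340 nm), normalised by Hoechst 33258 staining (ex 355/em 460 nm); IC50 from sigmoidal dose-response fit.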

T1 sequence (P42336 whole entry): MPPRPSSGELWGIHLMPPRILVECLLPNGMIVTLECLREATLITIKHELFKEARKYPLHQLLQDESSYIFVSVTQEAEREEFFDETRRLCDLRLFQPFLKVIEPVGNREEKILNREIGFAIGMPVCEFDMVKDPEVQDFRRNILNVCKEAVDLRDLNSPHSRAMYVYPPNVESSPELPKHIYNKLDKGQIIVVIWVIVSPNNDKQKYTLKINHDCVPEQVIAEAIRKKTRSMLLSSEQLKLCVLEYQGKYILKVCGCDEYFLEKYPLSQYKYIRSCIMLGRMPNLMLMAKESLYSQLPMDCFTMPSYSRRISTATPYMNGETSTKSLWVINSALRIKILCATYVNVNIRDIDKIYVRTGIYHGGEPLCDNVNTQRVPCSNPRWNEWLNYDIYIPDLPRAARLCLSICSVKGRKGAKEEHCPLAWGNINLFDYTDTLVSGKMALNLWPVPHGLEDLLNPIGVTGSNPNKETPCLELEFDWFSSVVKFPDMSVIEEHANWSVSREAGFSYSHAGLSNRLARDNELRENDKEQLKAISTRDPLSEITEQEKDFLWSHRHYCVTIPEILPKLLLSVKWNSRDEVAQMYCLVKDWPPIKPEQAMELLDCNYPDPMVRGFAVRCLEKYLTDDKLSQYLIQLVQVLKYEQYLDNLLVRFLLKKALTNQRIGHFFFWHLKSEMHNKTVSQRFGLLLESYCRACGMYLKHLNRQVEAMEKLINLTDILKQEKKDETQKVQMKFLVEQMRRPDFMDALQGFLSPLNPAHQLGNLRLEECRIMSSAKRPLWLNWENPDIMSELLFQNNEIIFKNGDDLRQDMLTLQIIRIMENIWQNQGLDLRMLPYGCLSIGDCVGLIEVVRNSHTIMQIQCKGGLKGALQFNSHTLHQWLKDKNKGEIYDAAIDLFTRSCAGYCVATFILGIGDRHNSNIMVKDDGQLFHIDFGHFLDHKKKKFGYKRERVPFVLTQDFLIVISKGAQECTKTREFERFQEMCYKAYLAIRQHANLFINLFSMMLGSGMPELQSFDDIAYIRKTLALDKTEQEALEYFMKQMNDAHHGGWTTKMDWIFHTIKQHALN
T1 sequence (P27986 whole entry partner): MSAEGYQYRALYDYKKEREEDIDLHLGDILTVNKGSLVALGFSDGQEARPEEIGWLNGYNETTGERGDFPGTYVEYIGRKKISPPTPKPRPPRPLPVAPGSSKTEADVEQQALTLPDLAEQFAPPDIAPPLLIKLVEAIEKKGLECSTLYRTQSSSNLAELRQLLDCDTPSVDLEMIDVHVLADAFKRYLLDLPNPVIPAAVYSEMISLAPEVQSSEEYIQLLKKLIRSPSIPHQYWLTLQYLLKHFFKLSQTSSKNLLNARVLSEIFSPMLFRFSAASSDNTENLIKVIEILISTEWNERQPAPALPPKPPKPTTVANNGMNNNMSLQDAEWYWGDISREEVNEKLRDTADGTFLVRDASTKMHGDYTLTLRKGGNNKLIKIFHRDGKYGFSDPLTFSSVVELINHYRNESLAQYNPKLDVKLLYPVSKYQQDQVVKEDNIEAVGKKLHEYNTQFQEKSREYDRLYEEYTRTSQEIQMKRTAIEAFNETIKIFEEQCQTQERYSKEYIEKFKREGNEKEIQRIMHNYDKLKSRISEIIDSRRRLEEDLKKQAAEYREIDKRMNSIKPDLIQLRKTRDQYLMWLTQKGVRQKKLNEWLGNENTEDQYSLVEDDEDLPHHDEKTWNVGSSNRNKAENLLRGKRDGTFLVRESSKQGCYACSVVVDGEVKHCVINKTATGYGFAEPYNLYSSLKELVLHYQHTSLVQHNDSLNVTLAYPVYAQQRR
Chain of PI3 kinase isoform δ (O00329 whole entry, the tested form may be a part, canonical isoform): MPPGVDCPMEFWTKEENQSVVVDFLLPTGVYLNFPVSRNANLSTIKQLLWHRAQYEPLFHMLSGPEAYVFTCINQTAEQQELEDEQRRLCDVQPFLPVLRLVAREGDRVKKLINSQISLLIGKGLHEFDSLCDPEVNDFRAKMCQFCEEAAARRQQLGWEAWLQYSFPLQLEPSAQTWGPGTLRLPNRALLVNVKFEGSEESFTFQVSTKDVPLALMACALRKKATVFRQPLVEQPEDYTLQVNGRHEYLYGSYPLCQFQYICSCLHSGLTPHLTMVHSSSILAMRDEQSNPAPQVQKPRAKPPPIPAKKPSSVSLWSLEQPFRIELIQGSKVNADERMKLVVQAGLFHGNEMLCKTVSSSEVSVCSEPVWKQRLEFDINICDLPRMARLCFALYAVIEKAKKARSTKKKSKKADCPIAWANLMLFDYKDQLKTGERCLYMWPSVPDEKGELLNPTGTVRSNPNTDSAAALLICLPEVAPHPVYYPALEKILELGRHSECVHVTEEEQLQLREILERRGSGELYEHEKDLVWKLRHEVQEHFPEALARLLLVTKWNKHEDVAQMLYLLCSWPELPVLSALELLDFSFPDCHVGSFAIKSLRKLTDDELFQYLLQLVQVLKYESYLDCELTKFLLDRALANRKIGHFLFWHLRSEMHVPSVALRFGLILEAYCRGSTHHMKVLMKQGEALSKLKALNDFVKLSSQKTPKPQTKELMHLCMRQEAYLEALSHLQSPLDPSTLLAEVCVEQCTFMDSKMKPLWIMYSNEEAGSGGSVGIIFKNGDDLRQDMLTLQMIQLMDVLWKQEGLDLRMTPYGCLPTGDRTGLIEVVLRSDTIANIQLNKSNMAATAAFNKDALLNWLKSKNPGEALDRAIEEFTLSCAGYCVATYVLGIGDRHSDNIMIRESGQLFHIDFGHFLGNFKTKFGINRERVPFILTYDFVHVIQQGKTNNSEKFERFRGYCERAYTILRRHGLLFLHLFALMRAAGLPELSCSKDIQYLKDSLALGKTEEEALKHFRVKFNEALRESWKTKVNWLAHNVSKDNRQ
Chain of PI3 kinase isoform δ (P27986 whole entry partner, the tested form may be a part, canonical isoform): as the sequence (P27986 whole entry partner) above

## CN(C)C(=O)c1ccc(NC(=O)Nc2ccc(-c3nc(N4CCOCC4)c4ccc(-c5cccc(S(C)(=O)=O)c5)cc4n3)cn2)cc1 [Example 3]
[1]
  IC50: < 50 nM
PI3 kinase isoform δ
  IC50: > 1000 nM
mTOR kinase
  IC50: 50 to 200 nM
PC3 cells
  IC50: 100 to 500 nM

## CN(C)C(=O)c1ccc(NC(=O)Nc2ccc(-c3nc(N4CCOCC4)c4ccc(-c5cccnc5)cc4n3)cc2)cc1 [Example 24, N,N-dimethyl-4-{3-[4-(4-morpholin-4-yl-7-pyridin-3-yl-quinazolin-2-yl)-phenyl]-ureido}-benzamide]
[1]
  IC50: < 50 nM
mTOR kinase
  IC50: < 50 nM
[2]
  IC50: 100 to 500 nM
[3]
  IC50: 100 to 500 nM
[4]
  IC50: < 100 nM
PC3 cells
  IC50: < 100 nM

## CN1CCN(C(=O)c2ccc(NC(=O)Nc3ccc(-c4nc(N5CCOCC5)c5ccc(-c6cccnc6)cc5n4)cc3)cc2)CC1 [Example 33, 1-[4-(4-methyl-piperazine-1-carbonyl)-phenyl]-3-[4-(4-morpholin-4-yl-7-pyridin-3-yl-quinazolin-2-yl)-phenyl]-urea]
[1]
  IC50: < 50 nM
mTOR kinase
  IC50: < 50 nM
[2]
  IC50: 100 to 500 nM
[3]
  IC50: 100 to 500 nM
[4]
  IC50: < 100 nM
PC3 cells
  IC50: < 100 nM

## CN(C)C(=O)c1ccc(NC(=O)Nc2ccc(-c3nc(N4CCOCC4)c4cc(F)c(-c5cnn(C)c5)cc4n3)cc2)cc1 [Example 35, 4-(3-{4-[6-Fluoro-7-(1-methyl-1H-pyrazol-4-yl)-4-morpholin-4-yl-quinazolin-2-yl]-phenyl}-ureido)-N,N-dimethyl-benzamide]
[1]
  IC50: < 50 nM
mTOR kinase
  IC50: < 50 nM
[2]
  IC50: 100 to 500 nM
[3]
  IC50: 100 to 500 nM
[4]
  IC50: < 100 nM
PC3 cells
  IC50: < 100 nM

## CN(C)C(=O)c1ccc(NC(=O)Nc2ccc(-c3nc(N4CCOCC4)c4ncc(-c5cnn(C)c5)cc4n3)cc2)cc1 [Example 42, N,N-dimethyl-4-(3-{4-[7-(1-methyl-1H-pyrazol-4-yl)-4-morpholin-4-yl-pyrido[3,2-d]pyrimidin-2-yl]-phenyl}-ureido)-benzamide]
[1]
  IC50: < 50 nM
mTOR kinase
  IC50: < 50 nM
[2]
  IC50: < 100 nM
[3]
  IC50: 100 to 500 nM
[4]
  IC50: 100 to 500 nM
PC3 cells
  IC50: < 100 nM

## CN(C)CCN(C)C(=O)c1ccc(NC(=O)Nc2ccc(-c3nc(N4CCOCC4)c4ccc(-c5cncnc5)cc4n3)cc2)cc1 [Example 44, N-(2-dimethylamino-ethyl)-N-methyl-4-{3-[4-(4-morpholin-4-yl-7-pyrimidin-5-yl-quinazolin-2-yl)-phenyl]-ureido}-benzamide]
[1]
  IC50: < 50 nM
mTOR kinase
  IC50: < 50 nM
[2]
  IC50: < 100 nM
[3]
  IC50: < 100 nM
[4]
  IC50: < 100 nM
PC3 cells
  IC50: < 100 nM

## CN(C)C(=O)c1ccc(NC(=O)Nc2ccc(-c3nc(N4CCOCC4)c4ncc(-c5cccnc5)cc4n3)cc2)cc1 [Example 46, N,N-dimethyl-4-{3-[4-(4-morpholin-4-yl-7-pyridin-3-yl-pyrido[3,2-d]pyrimidin-2-yl)-phenyl]-ureido}-benzamide]
[1]
  IC50: < 50 nM
mTOR kinase
  IC50: < 50 nM
[2]
  IC50: < 100 nM
[3]
  IC50: 100 to 500 nM
[4]
  IC50: < 100 nM
PC3 cells
  IC50: < 100 nM

## CC(=O)Nc1cccc(-c2ccc3c(N4CCOCC4)nc(-c4ccc(NC(=O)Nc5ccc(C(=O)N(C)C)cc5)cc4)nc3c2)c1 [Example 49, 4-(3-{4-[7-(3-acetylamino-phenyl)-4-morpholin-4-yl-quinazolin-2-yl]-phenyl}-ureido)-N,N-dimethyl-benzamide]
[1]
  IC50: < 50 nM
mTOR kinase
  IC50: < 50 nM
[2]
  IC50: 100 to 500 nM
[3]
  IC50: 100 to 500 nM
[4]
  IC50: < 100 nM
PC3 cells
  IC50: < 100 nM

## CN(C)C(=O)c1ccc(NC(=O)Nc2ccc(-c3nc(N4CCOCC4)c4ccc(-c5cccnc5F)cc4n3)cn2)cc1 [Example 54, 4-(3-{5-[7-(2-fluoro-pyridin-3-yl)-4-morpholin-4-yl-quinazolin-2-yl]-pyridin-2-yl}-ureido)-N,N-dimethyl-benzamide]
[1]
  IC50: < 50 nM
PI3 kinase isoform δ
  IC50: > 1000 nM
mTOR kinase
  IC50: 50 to 200 nM
PC3 cells
  IC50: 100 to 500 nM

## CN(C)C(=O)c1ccc(NC(=O)Nc2ccc(-c3nc(N4CCOCC4)c4ncc(-c5cccnc5F)cc4n3)cn2)cc1 [Example 111, 4-(3-(5-(7-(2-fluoropyridin-3-yl)-4-morpholino-pyrido[3,2-d]pyrimidin-2-yl)pyridin-2-yl)ureido)-N,N-dimethyl-benzamide]
[1]
  IC50: < 50 nM
PI3 kinase isoform δ
  IC50: > 1000 nM
mTOR kinase
  IC50: < 50 nM
[2]
  IC50: 201 to 10000 nM
[4]
  IC50: 201 to 10000 nM
PC3 cells
  IC50: 201 to 10000 nM

## CN(C)C(=O)c1ccc(NC(=O)Nc2ccc(-c3nc(N4CCOCC4)c4cc(F)c(-c5cnn(C)c5)cc4n3)cn2)cc1 [Example 113, 4-(3-(5-(6-fluoro-7-(1-methyl-1H-pyrazol-4-yl)-4-morpholino-quinazolin-2-yl)pyridin-2-yl)ureido)-N,N-dimethyl-benzamide]
[1]
  IC50: < 50 nM
PI3 kinase isoform δ
  IC50: > 1000 nM
mTOR kinase
  IC50: 50 to 200 nM
[2]
  IC50: < 100 nM
[4]
  IC50: < 100 nM
PC3 cells
  IC50: 201 to 10000 nM

## CN(C)C(=O)c1ccc(NC(=O)Nc2ccc(-c3nc(N4CCOCC4)c4ccc(-c5cccc(S(C)(=O)=O)c5)cc4n3)cn2)cc1F [Example 253, 2-fluoro-N,N-dimethyl-4-(3-(5-(7-(3-(methylsulfonyl)phenyl)-4-morpholino-quinazolin-2-yl)pyridin-2-yl)ureido)-benzamide]
[1]
  IC50: < 50 nM
PI3 kinase isoform δ
  IC50: > 1000 nM
mTOR kinase
  IC50: 201 to 10000 nM
[2]
  IC50: < 100 nM
